# Measurements published in patent US7192906B2, “Substituted pyrazole derivatives, production process thereof, and herbicide compositions containing the derivatives” (SDS Biotech K.K., priority 2001, dated 2007).
# What was measured:
# Format in all cases: in vivo
# Rice (Oryza sativa) = assay: Test Example 3 paddy field treatment, crop phytotoxicity; settings: active ingredient 1 kg per hectare, index 0-5; for Herbicidal activity (phytotoxicity) OS: Table 6, paddy field treatment, transplanted rice, 21st day after dropping; for Herbicidal activity OS (phytotoxicity to rice): paddy field treatment, transplanted rice Koshihikari, wettable powder, 21st day after the dropping
# Outline: (§1)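 Scoring used a 0–5 scale of herbicidal effect or phytotoxicity, from <10% to ≥90%, taken 21 days after treatment. Treatment was 1 kg a.i./ha as diluted wettable powder dripped onto 4 cm-deep flooded pots sown with the weeds, 10 days after transplanting two-leaf Koshihikari rice.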
# soybean (Glycine max) [1] = assay: Test Example 1 upland field foliage treatment, crop phytotoxicity; settings: Table 4, upland field foliage treatment, index 0-5
# Outline: (§2)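 Post-emergence foliar spray, 1 kg a.i./ha, wettable powder diluted in water, applied 14 d after sowing in upland soil. Rating 21 d post-application, 0–5 scale: 5 ≥90%, 4 70–<90%, 3 50–<70%, 2 30–<50%, 1 10–<30%, 0 <10% effect or injury.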
# [2] = tested on: wheat (Triticum aestivum); assay: as above; settings: Table 4, upland field foliage treatment, index 0-5
# Outline: as §2
# Setaria viridis [3] = assay: Test Example 1 upland field foliage treatment; settings: Table 4, upland field foliage treatment, index 0-5
# Outline: as §2
# Chenopodium album [4] = assay: Test Example 1 upland field foliage treatment; settings: Table 4, upland field foliage treatment, index 0-5
# Outline: as §2
# Digitaria adscendens [5] = assay: Test Example 1 upland field foliage treatment; settings: Table 4, upland field foliage treatment, index 0-5
# Outline: as §2
# Stellaria media [6] = assay: Test Example 1 upland field foliage treatment; settings: Table 4, upland field foliage treatment, index 0-5
# Outline: as §2
# Setaria viridis [7] = assay: Test Example 2 upland soil treatment; settings: Table 5, upland soil treatment, index 0-5
# Outline: (§3)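 Seeds are sown into upland soil and covered by roughly 1 cm of soil, then the compound, formulated as a wettable powder and diluted with water, is applied uniformly to the soil surface the following day at 1 kg active ingredient per hectare. Herbicidal effect or phytotoxicity is graded 0 to 5 after 21 days.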
# Chenopodium album [8] = assay: Test Example 2 upland soil treatment; settings: Table 5, upland soil treatment, index 0-5
# Outline: as §3
# Digitaria adscendens [9] = assay: Test Example 2 upland soil treatment; settings: Table 5, upland soil treatment, index 0-5
# Outline: as §3
# Stellaria media [10] = assay: Test Example 2 upland soil treatment; settings: Table 5, upland soil treatment, index 0-5
# Outline: as §3
# soybean (Glycine max) [11] = assay: Test Example 2 upland soil treatment, crop phytotoxicity; settings: Table 5, upland soil treatment, index 0-5
# Outline: as §3
# [12] = tested on: wheat (Triticum aestivum); assay: as above; settings: Table 5, upland soil treatment, index 0-5
# Outline: as §3
# Echinochloa crusgalli = assay: Test Example 3 paddy field treatment; settings: active ingredient 1 kg per hectare, index 0-5
# Outline: as §1
# Scirpus juncoides = assay: Test Example 3 paddy field treatment; settings: active ingredient 1 kg per hectare, index 0-5
# Outline: as §1
# Ammannia multiflora = assay: Test Example 3 paddy field treatment; settings: active ingredient 1 kg per hectare, index 0-5
# Outline: as §1
# Monochoria vaginalis = assay: Test Example 3 paddy field treatment; settings: active ingredient 1 kg per hectare, index 0-5
# Outline: as §1
# [13] = Table 6, paddy field treatment, 21st day after dropping
# [14] = paddy field treatment, wettable powder, 21st day after the dropping
Compound,Herbicidal activity (phytotoxicity) OS (Rice (Oryza sativa)),Herbicidal activity (phytotoxicity) GM: Soybean (Glycine max) (soybean (Glycine max) [1]),Herbicidal activity (phytotoxicity) TA: Wheat (Triticum aestivum) [2],Herbicidal activity SV: Setaria viridis (Setaria viridis [3]),Herbicidal activity CA: Chenopodium album (Chenopodium album [4]),Herbicidal activity DA: Digitaria adscendens (Digitaria adscendens [5]),Herbicidal activity SM: Stellaria media (Stellaria media [6]),Herbicidal activity SV: Setaria viridis (Setaria viridis [7]),Herbicidal activity CA: Chenopodium album (Chenopodium album [8]),Herbicidal activity DA: Digitaria adscendens (Digitaria adscendens [9]),Herbicidal activity SM: Stellaria media (Stellaria media [10]),Herbicidal activity (phytotoxicity) GM: Soybean (Glycine max) (soybean (Glycine max) [11]),Herbicidal activity (phytotoxicity) TA: Wheat (Triticum aestivum) [12],Herbicidal activity EC (Echinochloa crusgalli; [13]),Herbicidal activity SJ (Scirpus juncoides; [13]),Herbicidal activity AM (Ammannia multiflora; [13]),Herbicidal activity MV (Monochoria vaginalis; [13]),Herbicidal activity OS (phytotoxicity to rice) (Rice (Oryza sativa)),Herbicidal activity EC (Echinochloa crusgalli; [14]),Herbicidal activity SJ (Scirpus juncoides; [14]),also measured
CCc1cn(CC(=NOC)C(=O)NC)nc1-c1ccccc1 [Compound 98],"0 (herbicidal effect of not less than 0% and less than 10%, or phytotoxicity of 0% or more and less than 10%)","0 (herbicidal effect of not less than 0% and less than 10%, or phytotoxicity of 0% or more and less than 10%)","0 (herbicidal effect of not less than 0% and less than 10%, or phytotoxicity of 0% or more and less than 10%)","3 (herbicidal effect of not less than 50% and less than 70%, or phytotoxicity of 50% or more and less than 70%)","4 (herbicidal effect of not less than 70% and less than 90%, or phytotoxicity of 70% or more and less than 90%)","4 (herbicidal effect of not less than 70% and less than 90%, or phytotoxicity of 70% or more and less than 90%)","4 (herbicidal effect of not less than 70% and less than 90%, or phytotoxicity of 70% or more and less than 90%)","3 (herbicidal effect of not less than 50% and less than 70%, or phytotoxicity of 50% or more and less than 70%)","4 (herbicidal effect of not less than 70% and less than 90%, or phytotoxicity of 70% or more and less than 90%)","4 (herbicidal effect of not less than 70% and less than 90%, or phytotoxicity of 70% or more and less than 90%)","5 (herbicidal effect of not less than 90%, or phytotoxicity of 90% or more)","0 (herbicidal effect of not less than 0% and less than 10%, or phytotoxicity of 0% or more and less than 10%)","0 (herbicidal effect of not less than 0% and less than 10%, or phytotoxicity of 0% or more and less than 10%)","5 (herbicidal effect of not less than 90%, or phytotoxicity of 90% or more)","4 (herbicidal effect of not less than 70% and less than 90%, or phytotoxicity of 70% or more and less than 90%)","4 (herbicidal effect of not less than 70% and less than 90%, or phytotoxicity of 70% or more and less than 90%)","5 (herbicidal effect of not less than 90%, or phytotoxicity of 90% or more)",–,–,–,–
C#CCNC(=O)C(Cn1cc(C)c(-c2ccccc2)n1)=NOC [Compound 27],–,"0 (herbicidal effect of not less than 0% and less than 10%, or phytotoxicity of 0% or more and less than 10%)","0 (herbicidal effect of not less than 0% and less than 10%, or phytotoxicity of 0% or more and less than 10%)","5 (herbicidal effect of not less than 90%, or phytotoxicity of 90% or more)","5 (herbicidal effect of not less than 90%, or phytotoxicity of 90% or more)","5 (herbicidal effect of not less than 90%, or phytotoxicity of 90% or more)","5 (herbicidal effect of not less than 90%, or phytotoxicity of 90% or more)","5 (herbicidal effect of not less than 90%, or phytotoxicity of 90% or more)","5 (herbicidal effect of not less than 90%, or phytotoxicity of 90% or more)","5 (herbicidal effect of not less than 90%, or phytotoxicity of 90% or more)","5 (herbicidal effect of not less than 90%, or phytotoxicity of 90% or more)","1 (herbicidal effect of not less than 10% and less than 30%, or phytotoxicity of 10% or more and less than 30%)","0 (herbicidal effect of not less than 0% and less than 10%, or phytotoxicity of 0% or more and less than 10%)",–,–,–,–,"0 (herbicidal effect of not less than 0% and less than 10%, or phytotoxicity of 0% or more and less than 10%)","5 (herbicidal effect of not less than 90%, or phytotoxicity of 90% or more)","5 (herbicidal effect of not less than 90%, or phytotoxicity of 90% or more)","Herbicidal activity AM (Ammannia multiflora; [14]): 5 (herbicidal effect of not less than 90%, or phytotoxicity of 90% or more); Herbicidal activity MV (Monochoria vaginalis; [14]): 5 (herbicidal effect of not less than 90%, or phytotoxicity of 90% or more)"
CON=C(Cn1cc(C)c(-c2ccccc2)n1)C(=O)NC1CCCCC1 [Compound 24],–,"0 (herbicidal effect of not less than 0% and less than 10%, or phytotoxicity of 0% or more and less than 10%)","0 (herbicidal effect of not less than 0% and less than 10%, or phytotoxicity of 0% or more and less than 10%)","4 (herbicidal effect of not less than 70% and less than 90%, or phytotoxicity of 70% or more and less than 90%)","4 (herbicidal effect of not less than 70% and less than 90%, or phytotoxicity of 70% or more and less than 90%)","3 (herbicidal effect of not less than 50% and less than 70%, or phytotoxicity of 50% or more and less than 70%)","4 (herbicidal effect of not less than 70% and less than 90%, or phytotoxicity of 70% or more and less than 90%)","4 (herbicidal effect of not less than 70% and less than 90%, or phytotoxicity of 70% or more and less than 90%)","5 (herbicidal effect of not less than 90%, or phytotoxicity of 90% or more)","3 (herbicidal effect of not less than 50% and less than 70%, or phytotoxicity of 50% or more and less than 70%)","4 (herbicidal effect of not less than 70% and less than 90%, or phytotoxicity of 70% or more and less than 90%)","0 (herbicidal effect of not less than 0% and less than 10%, or phytotoxicity of 0% or more and less than 10%)","0 (herbicidal effect of not less than 0% and less than 10%, or phytotoxicity of 0% or more and less than 10%)",–,–,–,–,"0 (herbicidal effect of not less than 0% and less than 10%, or phytotoxicity of 0% or more and less than 10%)","4 (herbicidal effect of not less than 70% and less than 90%, or phytotoxicity of 70% or more and less than 90%)","4 (herbicidal effect of not less than 70% and less than 90%, or phytotoxicity of 70% or more and less than 90%)","Herbicidal activity AM (Ammannia multiflora; [14]): 4 (herbicidal effect of not less than 70% and less than 90%, or phytotoxicity of 70% or more and less than 90%); Herbicidal activity MV (Monochoria vaginalis; [14]): 5 (herbicidal effect of not less than 90%, or phytotoxicity of 90% or more)"
CNC(=O)C(Cn1cc(C)c(-c2cc(F)c(OC)c(F)c2)n1)=NOC [Compound 92],"0 (herbicidal effect of not less than 0% and less than 10%, or phytotoxicity of 0% or more and less than 10%)","0 (herbicidal effect of not less than 0% and less than 10%, or phytotoxicity of 0% or more and less than 10%)","0 (herbicidal effect of not less than 0% and less than 10%, or phytotoxicity of 0% or more and less than 10%)","5 (herbicidal effect of not less than 90%, or phytotoxicity of 90% or more)","5 (herbicidal effect of not less than 90%, or phytotoxicity of 90% or more)","5 (herbicidal effect of not less than 90%, or phytotoxicity of 90% or more)","5 (herbicidal effect of not less than 90%, or phytotoxicity of 90% or more)","5 (herbicidal effect of not less than 90%, or phytotoxicity of 90% or more)","5 (herbicidal effect of not less than 90%, or phytotoxicity of 90% or more)","5 (herbicidal effect of not less than 90%, or phytotoxicity of 90% or more)","5 (herbicidal effect of not less than 90%, or phytotoxicity of 90% or more)","0 (herbicidal effect of not less than 0% and less than 10%, or phytotoxicity of 0% or more and less than 10%)","0 (herbicidal effect of not less than 0% and less than 10%, or phytotoxicity of 0% or more and less than 10%)","5 (herbicidal effect of not less than 90%, or phytotoxicity of 90% or more)","5 (herbicidal effect of not less than 90%, or phytotoxicity of 90% or more)","5 (herbicidal effect of not less than 90%, or phytotoxicity of 90% or more)","5 (herbicidal effect of not less than 90%, or phytotoxicity of 90% or more)",–,–,–,–
